We go through three molecules from paper PMC10974603, “Cytotoxicity and Multi-Enzyme Inhibition of Nepenthes miranda Stem Extract on H838 Human Non-Small Cell Lung Cancer Cells and RPA32, Elastase, Tyrosinase, and Hyaluronidase Proteins” (Plants, 2024).

Series [1] deals with T1, hyaluronidase from bovine testes type I-S (Bos taurus, UniProt Q2YDK3).
T1 construct: gene SPAM1; native bovine testes enzyme, commercial type I-S preparation
T1 sequence (Q2YDK3 36-553): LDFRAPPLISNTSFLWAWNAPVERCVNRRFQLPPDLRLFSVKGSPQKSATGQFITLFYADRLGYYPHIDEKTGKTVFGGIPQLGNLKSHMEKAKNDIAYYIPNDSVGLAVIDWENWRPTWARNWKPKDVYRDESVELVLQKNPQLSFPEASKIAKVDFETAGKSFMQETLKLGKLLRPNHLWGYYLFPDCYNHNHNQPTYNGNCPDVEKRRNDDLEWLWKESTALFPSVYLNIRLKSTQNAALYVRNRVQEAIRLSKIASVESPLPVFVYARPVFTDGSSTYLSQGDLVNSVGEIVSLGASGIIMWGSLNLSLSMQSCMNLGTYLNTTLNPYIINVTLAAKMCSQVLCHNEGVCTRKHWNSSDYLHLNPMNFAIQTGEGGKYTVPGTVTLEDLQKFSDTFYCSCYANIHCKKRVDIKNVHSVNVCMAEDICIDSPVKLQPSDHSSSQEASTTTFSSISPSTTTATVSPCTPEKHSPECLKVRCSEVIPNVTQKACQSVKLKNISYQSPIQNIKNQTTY
The experiment in a line: turbidity with acidic albumin, absorbance […] nm. To be noted: hyaluronic acid substrate (0.03% stock); phosphate pH 5.35; 37 °C; 45 min; preincubation at pH 7. It counts as biochemical.

Series [2] addresses T2, elastase (Porcine pancreatic elastase) (Sus scrofa, UniProt P00772).
T2 construct: gene CELA1; native pancreatic enzyme, commercial preparation; mature active enzyme
The experiment in a line: absorbance […] nm, p-nitroanilide release. Type of series: biochemical.

The target of a further series is huRPA32 (human, UniProt P15927 1-270). The experiment in a line: EMSA; no extract; [Protein]50; 40 mM Tris-HCl pH 7.5, 50 mM NaCl, 37 °C 60 min, DNA 30 fmol/uL; 8% native PAGE in TBE. To be noted: protein: recombinant; tags: N-terminal EF (EcoRI site); label: 5' biotin; single-stranded. In general terms: In EMSA bound probe runs differently from free probe, usually more slowly.
huRPA32, sequence (P15927 whole entry): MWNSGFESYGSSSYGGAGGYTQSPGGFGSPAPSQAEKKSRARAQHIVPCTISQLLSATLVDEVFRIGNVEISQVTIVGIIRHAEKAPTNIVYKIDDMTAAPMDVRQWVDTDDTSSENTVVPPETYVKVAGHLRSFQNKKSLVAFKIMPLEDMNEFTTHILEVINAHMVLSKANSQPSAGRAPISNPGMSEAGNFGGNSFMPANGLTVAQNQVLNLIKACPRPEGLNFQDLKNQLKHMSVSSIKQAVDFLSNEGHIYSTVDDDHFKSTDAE

T2 sequence (P00772 27-266): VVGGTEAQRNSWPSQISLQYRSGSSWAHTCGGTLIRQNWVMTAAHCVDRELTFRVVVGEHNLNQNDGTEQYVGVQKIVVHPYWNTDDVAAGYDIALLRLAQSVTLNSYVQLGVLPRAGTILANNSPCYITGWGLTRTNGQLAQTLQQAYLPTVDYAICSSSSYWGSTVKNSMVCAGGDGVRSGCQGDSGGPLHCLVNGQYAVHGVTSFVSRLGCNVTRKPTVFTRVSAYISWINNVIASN

For orientation: IC50 means the concentration needed to halve the response being measured. Lower therefore signals greater potency. For the molecule `O=c1c(O)c(-c2cc(O)c(O)c(O)c2)oc2cc(O)cc(O)c12` [Myr], the IC50 in series [1] is 29.9 µM.
In series [2], `O=C(O[C@@H]1Cc2c(O)cc(O)cc2O[C@@H]1c1cc(O)c(O)c(O)c1)c1cc(O)c(O)c(O)c1` [EGCG] had an IC50 of 9.62 µM.

B1: dT25 (ssDNA)
DNA: TTTTTTTTTTTTTTTTTTTTTTTTT
Turning to B1, the “apparent K (half saturation)” value with huRPA32 amounted to 6.3 ± 0.5 µM.
